According to patent US9708316B2 (BRISTOL-MYERS SQUIBB COMPANY, priority 2014, dated 2017):

Tests used:
[1] = molecular target: T1, HIS-TGFβR1 T204D (Homo sapiens, UniProt P36897, T204D); assay: HTRF probe-displacement assay, HIS-TGFβR1 T204D; assay type: binding; conditions: read-out: TGFβR1 (μM) IC50
T1 sequence (P36897 34-503 T204D): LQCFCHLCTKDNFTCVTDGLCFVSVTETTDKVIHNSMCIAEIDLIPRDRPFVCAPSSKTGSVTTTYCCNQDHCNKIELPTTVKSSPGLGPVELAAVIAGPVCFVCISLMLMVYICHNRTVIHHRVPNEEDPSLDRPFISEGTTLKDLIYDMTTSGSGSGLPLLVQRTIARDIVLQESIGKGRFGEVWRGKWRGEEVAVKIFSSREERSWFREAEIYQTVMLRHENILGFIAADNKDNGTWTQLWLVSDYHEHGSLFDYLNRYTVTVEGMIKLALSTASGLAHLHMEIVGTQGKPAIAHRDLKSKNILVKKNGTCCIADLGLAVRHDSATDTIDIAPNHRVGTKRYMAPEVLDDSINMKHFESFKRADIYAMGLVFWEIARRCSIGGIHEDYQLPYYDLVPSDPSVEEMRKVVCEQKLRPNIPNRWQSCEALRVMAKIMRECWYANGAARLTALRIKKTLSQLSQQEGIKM

[2] = molecular target: HIS-TGFβR2 WT (Homo sapiens, UniProt P37173); assay: HTRF probe-displacement assay, HIS-TGFβR2 WT; assay type: binding
Sequence of HIS-TGFβR2 WT (P37173 23-567): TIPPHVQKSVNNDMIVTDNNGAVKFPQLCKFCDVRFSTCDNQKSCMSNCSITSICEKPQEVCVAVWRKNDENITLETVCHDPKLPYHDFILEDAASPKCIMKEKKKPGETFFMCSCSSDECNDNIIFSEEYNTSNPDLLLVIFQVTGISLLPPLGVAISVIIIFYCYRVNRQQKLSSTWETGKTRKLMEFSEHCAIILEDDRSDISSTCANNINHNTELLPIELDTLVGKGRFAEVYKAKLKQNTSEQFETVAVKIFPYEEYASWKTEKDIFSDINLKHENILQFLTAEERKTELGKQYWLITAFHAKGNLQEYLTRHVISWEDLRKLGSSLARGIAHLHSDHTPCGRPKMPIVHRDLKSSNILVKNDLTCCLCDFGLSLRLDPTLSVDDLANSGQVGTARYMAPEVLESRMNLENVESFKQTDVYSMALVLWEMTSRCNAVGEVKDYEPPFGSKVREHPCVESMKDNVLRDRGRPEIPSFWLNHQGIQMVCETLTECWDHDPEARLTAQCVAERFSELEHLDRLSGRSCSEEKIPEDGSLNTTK

Row | Compound | IC50 [1] [µM] | IC50 [2] [µM]
1 | CC(=O)Nc1cc(-c2[nH]c3c(C(C)O)ccnc3c2-c2ccc(F)cn2)ccn1 (centres unmarked) [Example 265, N-(4-(3-(5-Fluoropyridin-2-yl)-7-(1-hydroxyethyl)-1H-pyrrolo[3,2-b]pyridin-2-yl)pyridin-2-yl)acetamide] | 0.004 | 1.05
2 | O=C(CN1CCNCC1)Nc1cc(-c2[nH]c3cc(Cl)cnc3c2-c2ccc(F)cn2)ccn1 [Example 247, N-(4-(6-Chloro-3-(5-fluoropyridin-2-yl)-1H-pyrrolo[3,2-b]pyridin-2-yl)pyridin-2-yl)-2-(piperazin-1-yl)acetamide] | 0.003 | ≥ 15
3 | COc1ccc(-c2c(-c3ccnc(NC(=O)CN4CCN(CCO)CC4)c3)[nH]c3cc(OC)cnc23)nc1 [Example 120, 2-[4-(2-Hydroxyethyl)piperazin-1-yl]-N-{4-[6-methoxy-3-(5-methoxypyridin-2-yl)-1H-pyrrolo[3,2-b]pyridin-2-yl]pyridin-2-yl}acetamide] | 0.001 | > 15
4 | CC(=O)Nc1cc(-c2[nH]c3c(C(C)O)ccnc3c2-c2nc(C)cs2)ccn1 (centres unmarked) [Example 232, N-(4-(7-(1-Hydroxyethyl)-3-(4-methylthiazol-2-yl)-1H-pyrrolo[3,2-b]pyridin-2-yl)pyridin-2-yl)acetamide] | 0.003 | 0.115
5 | COc1ccc(-c2c(-c3ccnc(NC(C)=O)c3)[nH]c3cccnc23)nc1C [Example 237, N-(4-(3-(5-Methoxy-6-methylpyridin-2-yl)-1H-pyrrolo[3,2-b]pyridin-2-yl)pyridin-2-yl)acetamide] | 0.111 | > 15
6 | CC(=O)Nc1cc(-c2[nH]c3c(CCO)ccnc3c2-c2cccc(C(F)F)n2)ccn1 [Example 155, N-(4-{3-[6-(Difluoromethyl)pyridin-2-yl]-7-(2-hydroxyethyl)-1H-pyrrolo[3,2-b]pyridin-2-yl}pyridin-2-yl)acetamide] | 0.001 | 3.47
7 | COc1ccc(-c2c(-c3ccnc(NC(=O)CN4CCOCC4)c3)[nH]c3cccnc23)cn1 [Example 286, N-(4-(3-(6-Methoxypyridin-3-yl)-1H-pyrrolo[3,2-b]pyridin-2-yl)pyridin-2-yl)-2-morpholinoacetamide] | 0.001 | 0.253
8 | CCNc1cc(-c2[nH]c3cc(Cl)cnc3c2-c2ccc(OC)cn2)ccn1 [Example 242, 4-(6-Chloro-3-(5-methoxypyridin-2-yl)-1H-pyrrolo[3,2-b]pyridin-2-yl)-N-ethylpyridin-2-amine] | 0.033 | ≥ 15
9 | COc1cnc(-c2c(-c3ccnc(NC(C)=O)c3)[nH]c3cc(Cl)cnc23)s1 [Example 239, N-(4-(6-Chloro-3-(5-methoxythiazol-2-yl)-1H-pyrrolo[3,2-b]pyridin-2-yl)pyridin-2-yl)acetamide] | 0.0746 | 3.28
10 | CC(=O)Nc1cc(-c2[nH]c3cc(Cl)cnc3c2-c2cccc(Cl)n2)ccn1 [Example 41, N-{4-[3-(6-Chloropyridin-2-yl)-6-chloro-1H-pyrrolo[3,2-b]pyridin-2-yl]pyridin-2-yl}acetamide] | 0.002 | 0.13
11 | CCN1CCN(CC(=O)Nc2cc(-c3[nH]c4cc(Cl)cnc4c3-c3ccc(OC)nc3)ccn2)CC1 [Example 291, N-(4-(6-chloro-3-(6-methoxypyridin-3-yl)-1H-pyrrolo[3,2-b]pyridin-2-yl)pyridin-2-yl)-2-(4-ethylpiperazin-1-yl)acetamide] | 0.001 | 1.66
12 | COc1ccc(-c2c(-c3ccnc(NC(C)=O)c3)[nH]c3c(C(C)=O)ccnc23)cn1 [Example 298, N-(4-(7-Acetyl-3-(6-methoxypyridin-3-yl)-1H-pyrrolo[3,2-b]pyridin-2-yl)pyridin-2-yl)acetamide] | 0.008 | 0.12
13 | COC(=O)Nc1cc(-c2[nH]c3cccnc3c2-c2ccc(OC)nc2)ccn1 [Example 84, Methyl N-{4-[3-(6-methoxypyridin-3-yl)-1H-pyrrolo[3,2-b]pyridin-2-yl]pyridin-2-yl}carbamate] | 0.002 | 0.13
